Reference: patent US20090131422A1, “Salts of an IKK inhibitor” (Millennium Pharmaceuticals, Inc., priority 2007, published 2009)
Converted amounts (≈) assume the structure as drawn. Counter-ions that a name gives are not always drawn.

How the values were obtained:
[1] = Gravimetric vapor sorption (GVS); format: physicochemical; conditions: 25° C.
Method: Gravimetric Vapor Sorption (GVS): Gravimetric vapor sorption (GVS) data are collected using either i) a SGA-100 Water Vapor Sorption Analyzer from VTI Corporation. Sample sizes are typically 5-10 mg. A moisture adsorption/desorption isotherm is recorded by subjecting samples to a series of relative humidity (RH) steps at a constant temperature of 25° C.; or ii) a Hiden IGASorp moisture sorption analyser running CFRSorp software, IGA Systems Software V3.00.23 and IGASorp Controller Version 1.10. Sample sizes are typically 10 mg. A moisture adsorption/desorption isotherm iserformed in the following way: Samples are loaded/unloaded at typical room humidity and temperature (40% RH, 25° C.) and analysed afterwards by XRPD. The isotherm run is two complete cycles. Each cycle begins at 40% RH and using 10% RH intervals goes to 90% RH then Dry then 40% RH.

physchem = conditions: water
Method: Solubility: The water solubility of the Tartrate and Mono-HCl Salt was measured at ambient temperature.

In the case of `C[C@@H]1CN(C(=O)CN2CC(C)(C)OC[C@H]2C(=O)Nc2cc(Cl)cc3c2[nH]c2cnccc23)C[C@H](C)O1` [Malonate Salt, (S)—N-(6-chloro-9H-pyrido[3,4-b]indol-8-yl)-4-(2-((2S,6R)-2,6-dimethylmorpholino)-2-oxoethyl)-6,6-dimethylmorpholine-3-carboxamide malonate], the “moisture uptake from 40-90% RH” value ([1]; 40-90% RH) is reported as 1.5 wt %.
With `C[C@@H]1CN(C(=O)CN2CC(C)(C)OC[C@H]2C(=O)Nc2cc(Cl)cc3c2[nH]c2cnccc23)C[C@H](C)O1` [Mono-Hydrochloride Salt, (S)—N-(6-chloro-9H-pyrido[3,4-b]indol-8-yl)-4-(2-((2S,6R)-2,6-dimethylmorpholino)-2-oxoethyl)-6,6-dimethylmorpholine-3-carboxamide mono-hydrochloride] the “moisture uptake at 70% RH” value ([1]; mono-hydrochloride) was 0.23% and the “moisture uptake at 90% RH” value ([1]; mono-hydrochloride) was 1.7%.
With `C[C@@H]1CN(C(=O)CN2CC(C)(C)OC[C@H]2C(=O)Nc2cc(Cl)cc3c2[nH]c2cnccc23)C[C@H](C)O1` [Tartrate Salt, (S)—N-(6-chloro-9H-pyrido[3,4-b]indol-8-yl)-4-(2-((2S,6R)-2,6-dimethylmorpholino)-2-oxoethyl)-6,6-dimethylmorpholine-3-carboxamide hemi-L-tartrate hydrate] the “moisture uptake at 70% RH” value [1] was 1.3%, the “moisture uptake at 90% RH” value [1] was 2.4% and the hygroscopicity ([1]; vapor sorption profile) was “relatively non-hygroscopic”.
Compound `C[C@@H]1CN(C(=O)CN2CC(C)(C)OC[C@H]2C(=O)Nc2cc(Cl)cc3c2[nH]c2cnccc23)C[C@H](C)O1` [free base, (S)—N-(6-chloro-9H-pyrido[3,4-b]indol-8-yl)-4-(2-((2S,6R)-2,6-dimethylmorpholino)-2-oxoethyl)-6,6-dimethylmorpholine-3-carboxamide] has a solubility (physchem) of roughly 10 µg/mL (≈ 19.5 µM).
